Assay: Human HepG2 cell viability assay in 384 well format
Assay type: toxicity, cell-based
Set-up: dose 125 nL, time 70.5 hour; cytotoxicity at 70.5 h: concentration not given beside the values
Settings: HepG2 cells, read-out: Inhibition

With `O=C(CCN1CCOCC1)NC(Cc1ccsc1)c1nccs1` (stereo not given) as the compound, how does the cytotoxicity at 70.5 h read?
The cytotoxicity at 70.5 h was -4.65%.

With `Cc1cccn2c(NC(C)(C)C)c(C3CCN(C(=O)C4CC4)CC3)nc12` as the compound, how does the cytotoxicity at 70.5 h read?
The cytotoxicity at 70.5 h was -6.96%.

For `Cc1csc2c(C3CCN(CCCOc4ccccc4)CC3)nc(C)n12`, which cytotoxicity at 70.5 h is on record?
The cytotoxicity at 70.5 h was -0.478%.

For `CC(C)C(=O)NCCc1cc2nc(-c3ccncc3)ccn2n1`, which cytotoxicity at 70.5 h is on record?
Its cytotoxicity at 70.5 h is -6.71%.

Which cytotoxicity at 70.5 h does the source give for `O=C(NCCc1cc2nc(-c3ccncc3)ccn2n1)C1CC1` here?
Its cytotoxicity at 70.5 h is -6.41%.

With `CC(C)NC(=O)[C@@H]1CN(C)C[C@]12COc1ccc(F)cc1C2=O` as the compound, how does the cytotoxicity at 70.5 h read?
The cytotoxicity at 70.5 h was -5.13%.

Which cytotoxicity at 70.5 h does the source give for `CN(C)c1cc(C2CCCN2)ccn1` (stereo not given) here?
Its cytotoxicity at 70.5 h is 0.143%.

For `Cc1noc(C)c1-c1cccc(C2CN(S(=O)(=O)N(C)C)CCO2)n1` (stereo not given), which cytotoxicity at 70.5 h is on record?
The cytotoxicity at 70.5 h was -3.96%.

With `COCCn1c(=O)n(C)c(=O)c2ccc(C3CCN(C(C)=O)CC3)nc21` as the compound, how does the cytotoxicity at 70.5 h read?
Its cytotoxicity at 70.5 h is -1.06%.

For `Cn1ccnc1C1(O)CCCN(Cc2ccncc2)CC1` (stereo not given), which cytotoxicity at 70.5 h is on record?
Its cytotoxicity at 70.5 h is -2.25%.

For `Cc1ccccc1C(=O)N1CC[C@H](O)[C@@H](N2CCOCC2)CC1`, which cytotoxicity at 70.5 h is on record?
Its cytotoxicity at 70.5 h is -4.48%.

With `O=C(O)CCCN1C[C@@H](c2ccccc2F)[C@@]2(CCCCC(=O)N2)C1` as the compound, how does the cytotoxicity at 70.5 h read?
Its cytotoxicity at 70.5 h is -2.59%.

With `CCC(O)Cn1nc(-c2ccc(C(=O)O)cc2)cc1-c1cccc(F)c1` (stereo not given) as the compound, how does the cytotoxicity at 70.5 h read?
The cytotoxicity at 70.5 h was 20.1%.

For `Clc1ccc(OCCc2cc(C3CCN(c4ncccn4)C3)n[nH]2)cc1` (stereo not given), which cytotoxicity at 70.5 h is on record?
The cytotoxicity at 70.5 h was 0.0716%.

Which cytotoxicity at 70.5 h does the source give for `NC(=O)CN1CCCC(c2ccnc(Nc3ncccn3)c2)C1` (stereo not given) here?
The cytotoxicity at 70.5 h was 18.8%.

Which cytotoxicity at 70.5 h does the source give for `COCCNc1ccc(CC2CCCN(C3CCOCC3)C2)nn1` (stereo not given) here?
Its cytotoxicity at 70.5 h is -4.94%.

With `O=C(c1cccnc1)N1CCc2[nH]nc(Nc3ccccc3)c2C1` as the compound, how does the cytotoxicity at 70.5 h read?
Its cytotoxicity at 70.5 h is -6.1%.

Which cytotoxicity at 70.5 h does the source give for `CC(=O)N1CCCC(c2ccnc(Nc3cnccn3)c2)C1` (stereo not given) here?
Its cytotoxicity at 70.5 h is -1.19%.

With `O=C(c1cncs1)N1CCc2[nH]nc(Nc3ccccc3)c2C1` as the compound, how does the cytotoxicity at 70.5 h read?
The cytotoxicity at 70.5 h was -3.16%.

Which cytotoxicity at 70.5 h does the source give for `CC(C)N1CCC(c2cnc(-c3cncnc3)cn2)CC1` here?
Its cytotoxicity at 70.5 h is 21.3%.

For `Cc1noc(C)c1CC(=O)N1CC[C@@](C)(O)[C@H](Oc2ccccc2)C1`, which cytotoxicity at 70.5 h is on record?
Its cytotoxicity at 70.5 h is -2.99%.

For `CC(=O)NCC(=O)N1CCOCC(Cc2ccc3c(ccn3C)c2)C1` (stereo not given), which cytotoxicity at 70.5 h is on record?
Its cytotoxicity at 70.5 h is -8.14%.

For `CNC(=O)C1(Cc2cc(C(C)C)no2)CCN(Cc2ccccn2)C1` (stereo not given), which cytotoxicity at 70.5 h is on record?
Its cytotoxicity at 70.5 h is -0.0563%.

For `COc1cc(CCC(=O)N2CCC(c3cncc(C)n3)CC2)on1`, which cytotoxicity at 70.5 h is on record?
Its cytotoxicity at 70.5 h is -3.99%.

With `COCC(=O)N1C[C@@H](O)[C@H](N2CCN(c3ccccc3)CC2)C1` as the compound, how does the cytotoxicity at 70.5 h read?
Its cytotoxicity at 70.5 h is -0.565%.

For `c1ccc(N2CCC(c3ccncc3)CC2)cc1`, which cytotoxicity at 70.5 h is on record?
The cytotoxicity at 70.5 h was 5.91%.

Which cytotoxicity at 70.5 h does the source give for `c1cncc(N2CCC(c3ccncc3)CC2)c1` here?
The cytotoxicity at 70.5 h was 3.31%.

Which cytotoxicity at 70.5 h does the source give for `CN(C)C(=O)c1cn[nH]c1C1(C)CCN(c2ncccn2)CC1` here?
Its cytotoxicity at 70.5 h is 2.96%.

Which cytotoxicity at 70.5 h does the source give for `CN1CCC(C(=O)N2CCC(c3ccc4c(N)n[nH]c4n3)CC2)CC1` here?
The cytotoxicity at 70.5 h was -0.601%.

Which cytotoxicity at 70.5 h does the source give for `O=C(Cc1ccccc1)N1CCC(c2nnc(-c3ccccn3)o2)CC1` here?
Its cytotoxicity at 70.5 h is 21.6%.

Which cytotoxicity at 70.5 h does the source give for `CC1(C(N)=O)CN(CC2CCOCC2)CCO1` (stereo not given) here?
The cytotoxicity at 70.5 h was 53.2%.

With `Cn1nc(Cl)cc1C(=O)N1CCC(C(=O)c2nc3ccccc3s2)CC1` as the compound, how does the cytotoxicity at 70.5 h read?
Its cytotoxicity at 70.5 h is 10.5%.

For `COc1cccc([C@@]2(O)CC[C@@H]3CN(C(=O)c4cn(C)nc4C)C[C@@H]32)c1`, which cytotoxicity at 70.5 h is on record?
Its cytotoxicity at 70.5 h is 1.27%.

With `Cc1nc2cc(-c3nccn3C)nn2c(N2CCCC(CO)C2)c1C` (stereo not given) as the compound, how does the cytotoxicity at 70.5 h read?
The cytotoxicity at 70.5 h was 2.86%.

For `CC(C)N1CCCC1c1csc(N)n1` (stereo not given), which cytotoxicity at 70.5 h is on record?
Its cytotoxicity at 70.5 h is -1.44%.

Which cytotoxicity at 70.5 h does the source give for `COc1cc(C(=O)NCC2(N(C)C)CCN(C)CC2)c2ccccc2n1` here?
The cytotoxicity at 70.5 h was 0.627%.

With `Cc1ccc(OCCN2CCC(c3nc(C)n4c(C)csc34)CC2)cc1` as the compound, how does the cytotoxicity at 70.5 h read?
The cytotoxicity at 70.5 h was 3.59%.

Which cytotoxicity at 70.5 h does the source give for `COc1ccc(CN(C)Cc2ccnc(C3CCCO3)n2)cc1` (stereo not given) here?
The cytotoxicity at 70.5 h was -2.06%.

For `CN1CCOC(C)(C(=O)Nc2nccs2)C1` (stereo not given), which cytotoxicity at 70.5 h is on record?
The cytotoxicity at 70.5 h was 40.2%.

With `O=C1N[C@H]2OCCC[C@H]2[C@H](c2ccccc2C(=O)O)N1` as the compound, how does the cytotoxicity at 70.5 h read?
The cytotoxicity at 70.5 h was 13.9%.

Which cytotoxicity at 70.5 h does the source give for `Cn1ccnc1CNC(=O)CCc1cccc(F)c1` here?
The cytotoxicity at 70.5 h was -9.01%.

For `CCOc1ccc(CN2CCCC(c3cc4ncccc4[nH]3)C2)cc1` (stereo not given), which cytotoxicity at 70.5 h is on record?
The cytotoxicity at 70.5 h was 6.95%.

Which cytotoxicity at 70.5 h does the source give for `Fc1ccc(CN2CCCC(c3cc4ncccc4[nH]3)C2)cc1` (stereo not given) here?
The cytotoxicity at 70.5 h was 3.04%.

Which cytotoxicity at 70.5 h does the source give for `Cc1c[nH]nc1C1CN(c2cnccn2)CCO1` (stereo not given) here?
The cytotoxicity at 70.5 h was -4.52%.

Which cytotoxicity at 70.5 h does the source give for `Cc1cn[nH]c1C1CCCCN1C(=O)CCc1c(C)n[nH]c1C` (stereo not given) here?
Its cytotoxicity at 70.5 h is -2.55%.

For `CCc1noc(C)c1C(=O)N1CCC(c2[nH]ncc2S(C)(=O)=O)C1` (stereo not given), which cytotoxicity at 70.5 h is on record?
The cytotoxicity at 70.5 h was -4.87%.

With `CN(CCC(=O)N1CCCC(Cc2cccnc2)C1)Cc1cccnc1` (stereo not given) as the compound, how does the cytotoxicity at 70.5 h read?
Its cytotoxicity at 70.5 h is -6.27%.

For `Cc1nc(-c2ccc(C(=O)O)cc2)cc(C2CCN(C(C)C)CC2)n1`, which cytotoxicity at 70.5 h is on record?
Its cytotoxicity at 70.5 h is 12.2%.

For `COc1cccc(CN2CC[C@H]3[C@@H](C2)[C@H](c2ccsc2)CN3C(C)=O)c1`, which cytotoxicity at 70.5 h is on record?
The cytotoxicity at 70.5 h was 28.6%.

For `Cc1ncc(C(=O)N2CCCC(Cc3nccs3)C2)cn1` (stereo not given), which cytotoxicity at 70.5 h is on record?
The cytotoxicity at 70.5 h was -8.16%.

For `Cn1cc(C(=O)N2CCCC(Cc3cnccn3)C2)cn1` (stereo not given), which cytotoxicity at 70.5 h is on record?
The cytotoxicity at 70.5 h was -15.6%.

For `CCCn1cc(C(=O)N2CCCC(Cc3nccs3)C2)cn1` (stereo not given), which cytotoxicity at 70.5 h is on record?
The cytotoxicity at 70.5 h was -4.77%.

For `CN(C)C(=O)CN1CCCCC1c1nc(N)ncc1-c1cccc(F)c1` (stereo not given), which cytotoxicity at 70.5 h is on record?
The cytotoxicity at 70.5 h was 34.4%.

Which cytotoxicity at 70.5 h does the source give for `CC(=O)N1CCCCC1c1nc(N)ncc1-c1ccccc1` (stereo not given) here?
The cytotoxicity at 70.5 h was -24.9%.

Which cytotoxicity at 70.5 h does the source give for `O=C(c1ccncc1)N1CCC(c2nc(O)cc(-c3ccncc3)n2)C1` (stereo not given) here?
Its cytotoxicity at 70.5 h is -12.6%.

— ChEMBL document CHEMBL3507680, “University of Dundee, Gates Library screen for HepG2 cell viability”
